Measured values as given in patent US4315933A, “Antibacterial amide compounds and pharmaceutical compositions containing the same” (Warner-Lambert Company, priority 1980, dated 1982).
In brackets after ≈: the same amount, converted by molar mass.

How the values were obtained:
Assay in all cases: Minimal Inhibitory Concentration, in vitro
Type in all cases: cell-based
[1] = tested on: Serr. marces.
[2] = tested on: Kleb. pneu.
[3] = tested on: Pseudomonas aeruginosa #28
[4] = tested on: Entero. cloacae; settings: for MIC: Enterobacter cloacae
[5] = tested on: Staph. aureus S18713; settings: for MIC: Staphylococcus aureus

Row | Compound | MIC [1] [µg/mL] | MIC [2] [µg/mL] | MIC [3] [µg/mL] | MIC [4] [µg/mL] | MIC [5] [µg/mL] | Minimal Inhibitory Concentration [1] [µg/mL] | Minimal Inhibitory Concentration [2] [µg/mL] | Minimal Inhibitory Concentration [3] [µg/mL] | Minimal Inhibitory Concentration [4] | Minimal Inhibitory Concentration [5] [µg/mL]
1 | CC1(C)S[C@@H]2[C@H](NC(=O)[C@H](NC(=O)c3cnc(-c4ccc(NC(=O)CC#N)cc4)nc3O)c3ccc(O)cc3)C(=O)N2[C@H]1C(=O)O [Example 4, N-[2-[4-(Cyanoacetylamino)phenyl]-4-hydroxy-5-pyrimidinylcarbonyl]amoxicillin] | 3.1 (≈ 4.8 µM) | 25 (≈ 38.7 µM) | 0.8 (≈ 1.24 µM) | 3.1 (≈ 4.8 µM) | > 50 | – | – | – | – | –
2 | COCC(=O)Nc1ccc(-c2ncc(C(=O)N[C@@H](C(=O)N[C@@H]3C(=O)N4[C@@H]3SC(C)(C)[C@@H]4C(=O)O)c3ccccc3)c(O)n2)cc1 [Example 5, N-[2-[4-(Methoxyacetylamino)phenyl]-4-hydroxy-5-pyrimidinylcarbonyl]ampicillin] | 100 (≈ 158 µM) | 25 (≈ 39.4 µM) | 3.1 (≈ 4.88 µM) | 12.5 (≈ 19.7 µM) | 100 (≈ 158 µM) | – | – | – | – | –
3 | CCNC(=O)Nc1ccc(-c2ncc(C(=O)N[C@@H](C(=O)N[C@@H]3C(=O)N4[C@@H]3SC(C)(C)[C@@H]4C(=O)O)c3ccc(O)cc3)c(O)n2)cc1 [Example 8, N-[2-[4-(N-Ethylcarbamoylamino)phenyl]-4-hydroxy-5-pyrimidinylcarbonyl]amoxicillin] | 3.1 (≈ 4.77 µM) | 12.5 (≈ 19.2 µM) | 0.8 (≈ 1.23 µM) | 6.3 (≈ 9.7 µM) | > 50 | – | – | – | – | –
4 | N-[2-[4-(Acetylamino)phenyl]-4-hydroxy-5-pyrimidinylcarbonyl]amoxicillin [Example 2] | – | – | – | – | – | 200 | 6.3 | 1.6 | – | –
5 | N-[2-[4-(Dichloroacetylamino)phenyl]-4-hydroxy-5-pyrimidinylcarbonyl]amoxicillin [Example 1] | – | – | – | – | – | 200 | 12.5 | 1.6 | 1.6 µg/mL | 50
6 | N-[2-[4-(Trifluoroacetylamino)phenyl]-4-hydroxy-5-pyrimidinylcarbonyl]amoxicillin [Example 3] | – | – | – | – | – | 3.1 | 12.5 | 0.8 | 6.3 µg/mL | > 50
7 | N-[2-[4-[(2,2,2-Trifluoroethyl)thio]acetylamino]phenyl]-4-hydroxy-5-pyrimidinylcarbonyl]amoxicillin [Example 7] | – | – | – | – | – | 200 | 50 | – | – | 50
8 | N-[2-[4-[(2-Ethoxy-1,2-dioxoethyl)amino]phenyl]-4-hydroxy-5-pyrimidinylcarbonyl]amoxicillin [Example 6] | – | – | – | – | – | – | 25 | 1.6 | 12,5 μg/ml | –
